Like-named read-outs stand apart in the source and are kept apart here. One block for each molecule: values may come before it.
How the values were obtained:
[1] = tested on: 22Rv1 prostate cancer cells; settings: read-out: 22Rv1 IC50, clinical agents; cited from earlier work
[2] = target: Mitochondrial respiratory complex II (Mus musculus, UniProt Q8K2B3+Q9CQA3+Q9CXV1+Q9CZB0); assay: Complex II inhibition assay; type: biochemical; settings: for % Inhibition CII (100 μM) / inhibition at 100 µM: mouse liver mitochondria, mean ±SD of n = 4; for inhibition at 100 µM: read-out: % Inhibition CII (100 μM), 100 μM
[3] = tested on: 22Rv1 prostate cancer cells; assay: MTS cytotoxicity assay in 22Rv1 prostate cancer cells; type: cell-based; settings: for reduction of 22Rv1 cell viability: 100 μM, 48 hr treatment, MTS
CII [4] = settings: read-out: CII IC50; rat heart mitochondria; cited from earlier work
[5] = tested on: low tumorigenic human endothelial kidney (HEK293) cells; assay: MTS cytotoxicity assay in HEK293 cells; type: cell-based; settings: Homo sapiens, HEK293, 72 h, read-out: HEK293 IC50
IRAK1 = settings: 100 μM, KinomeScan; cited from earlier work
TTK = settings: 100 μM, KinomeScan; cited from earlier work
breast cancer = settings: 200–300 mg/day, nine patients, stable disease for 4–8 months; cited from earlier work
TNBC MDA-MB-468 cells = assay: MTS cytotoxicity assay in MDA-MB-468 cells; type: cell-based; settings: for SI (Selectivity Index): MDA-MB-468 over HEK293 cells; for IC50: read-out: MDA-MB-468 IC50, 72 hours, mean ±SD of n=3
CII [6] = settings: read-out: CII IC50, cited from earlier work

Chain of Mitochondrial respiratory complex II (Q8K2B3 43-664): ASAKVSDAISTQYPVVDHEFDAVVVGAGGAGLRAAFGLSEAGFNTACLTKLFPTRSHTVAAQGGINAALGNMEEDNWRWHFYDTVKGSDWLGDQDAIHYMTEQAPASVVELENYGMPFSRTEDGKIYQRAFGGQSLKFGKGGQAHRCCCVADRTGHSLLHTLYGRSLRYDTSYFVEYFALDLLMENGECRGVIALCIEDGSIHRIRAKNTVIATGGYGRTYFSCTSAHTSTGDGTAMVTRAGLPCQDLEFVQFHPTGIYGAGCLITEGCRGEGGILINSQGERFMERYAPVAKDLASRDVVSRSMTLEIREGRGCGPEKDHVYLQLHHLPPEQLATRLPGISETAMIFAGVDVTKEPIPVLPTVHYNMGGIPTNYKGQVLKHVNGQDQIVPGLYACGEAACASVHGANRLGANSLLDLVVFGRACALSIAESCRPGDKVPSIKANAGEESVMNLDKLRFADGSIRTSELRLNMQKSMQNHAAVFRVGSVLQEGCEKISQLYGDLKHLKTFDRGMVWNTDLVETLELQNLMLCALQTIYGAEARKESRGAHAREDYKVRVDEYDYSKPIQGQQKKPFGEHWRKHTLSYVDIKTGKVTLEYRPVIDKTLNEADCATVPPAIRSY
Chain of Mitochondrial respiratory complex II (Q9CQA3 31-282): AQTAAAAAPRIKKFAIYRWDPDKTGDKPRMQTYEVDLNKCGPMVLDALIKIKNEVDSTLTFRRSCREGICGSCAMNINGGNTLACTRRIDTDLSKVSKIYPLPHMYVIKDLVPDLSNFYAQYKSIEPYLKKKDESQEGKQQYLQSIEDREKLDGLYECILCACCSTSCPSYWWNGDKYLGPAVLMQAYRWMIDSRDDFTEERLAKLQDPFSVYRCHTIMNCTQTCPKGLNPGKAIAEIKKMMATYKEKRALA
Chain of Mitochondrial respiratory complex II (Q9CZB0 30-169): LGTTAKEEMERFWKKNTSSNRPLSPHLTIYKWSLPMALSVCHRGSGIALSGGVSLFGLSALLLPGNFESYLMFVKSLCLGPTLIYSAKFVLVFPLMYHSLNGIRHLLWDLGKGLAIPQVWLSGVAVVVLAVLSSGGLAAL
Chain of Mitochondrial respiratory complex II (Q9CXV1 57-159): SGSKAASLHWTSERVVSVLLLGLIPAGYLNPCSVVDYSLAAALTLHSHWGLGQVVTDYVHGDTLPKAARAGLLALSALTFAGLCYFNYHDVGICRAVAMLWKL

Compound: CC(O)c1cc(C(=O)N[C@@H](C)Cn2ccc(-c3ccc(C#N)c(Cl)c3)n2)[nH]n1 (some centres unmarked) [darolutamide]
IC50 [1]: 46 ± 10 µM

IC50 [2]: 1236 ± 2.5 µM
% Inhibition CII (100 μM) ([2]; listed as DZX): no CII inhibition activity
inhibition at 100 µM [2]: 9%
Compound: CC1=Nc2ccc(Cl)cc2S(=O)(=O)N1 [Diazoxide, 7-chloro-3-methyl-2H-1,2,4-benzothiadiazine 1,1-dioxide, reference compound]
effect to reduce cell viability of prostate cancer cells ([3]; 100 μM up to 72 hours): no effect
IC50 (CII [4]): 32 µM
IC50 [5]: 547 ± 34.1 µM
kinase inhibition (IRAK1): 9%
kinase inhibition (TTK): 15%
response rate (breast cancer): 33%
effect to reduce cell viability of breast cancer cells (TNBC MDA-MB-468 cells; 100 μM up to 72 hours): no effect
SI (Selectivity Index) (TNBC MDA-MB-468 cells): 1.26
IC50 (TNBC MDA-MB-468 cells): 434 ± 26.2 µM

Compound: O=C(O)CC(=O)O [Malonate]
IC50 (CII [6]; competitive CII inhibitor): 40 µM

Compound: O=C(CC(=O)C(F)(F)F)c1cccs1 [TFFA, Thenoyltrifluoroacetone]
IC50 (CII [6]; control compound in CII assays): 30 µM

Compound: COc1[nH]c(=O)c(C(=O)[C@@H](C)C[C@H](C)[C@@H](Cl)CCl)c(O)c1OC [Atpenin A5, atpenin A5]
inhibition at 0.1 µM ([2]; read-out: % inhibition of CII at 0.1 μM): 93%
IC50 (CII [6]; positive control): 0.0033 µM
IC50 (CII [6]; ubiquinone binding site (IIQ)): 0.0036 to 0.01 µM

IC50 [2]: 89 ± 10.4 µM
inhibition at 100 µM [2]: 51 ± 13.9%
Compound: CC(NC1=NS(=O)(=O)c2ccc(Cl)cc2N1)c1ccccc1 (centres unmarked) [Compound 24b, 6-Chloro-3-((1-phenylethyl)amino)-4H-benzo[e][1,2,4]thiadiazine 1,1-dioxide]
reduction of 22Rv1 cell viability [3]: 50%
IC50 [5]: 118 ± 22.3 µM
SI (Selectivity Index) (TNBC MDA-MB-468 cells): 2.72

Compound: Cc1c(C)c2c(c(C)c1OC(=O)CCC(=O)O)CC[C@@](C)(CCC[C@H](C)CCC[C@H](C)CCCC(C)C)O2 [α-TOS, α -Tocopheryl succinate]
IC50 (CII [6]): 42 µM

IC50 [2]: 79.7 ± 4 µM
inhibition at 100 µM [2]: 64 ± 15.3%
Compound: COc1ccc(CNC2=NS(=O)(=O)c3cc(Br)ccc3N2)cc1 [Compound 20c, 7-Bromo-3-((4-methoxybenzyl)amino)-4H-benzo[e][1,2,4]thiadiazine 1,1-dioxide]
reduction of 22Rv1 cell viability [3]: 41%
IC50 [5]: 88 ± 12.3 µM
SI (Selectivity Index) (TNBC MDA-MB-468 cells): 3.23

% Inhibition CII (100 μM) [2]: 22 ±21.1%
inhibition at 100 µM [2]: 21%
Compound: O=S1(=O)N=C(NCc2ccc(OC(F)(F)F)cc2)Nc2ccc(Br)cc21 [Compound 30c, 7-Bromo-3-((4-(trifluoromethoxy)benzyl)amino)-4H-benzo[e][1,2,4] thiadiazine 1,1-dioxide]
reduction of 22Rv1 cell viability [3]: 45%
IC50 [5]: 52.9 ± 1.8 µM
SI (Selectivity Index) (TNBC MDA-MB-468 cells): 2.93
IC50 (TNBC MDA-MB-468 cells): 18 ± 1.4 µM

% Inhibition CII (100 μM) [2]: 46 ±13.4%
inhibition at 100 µM [2]: 47%
Compound: O=S1(=O)N=C(NCCCc2ccccc2)Nc2ccc(Br)cc21 [Compound 23c, 7-Bromo-3-((3-phenylpropyl)amino)-4H-benzo[e][1,2,4]thiadiazine 1,1-dioxide]
reduction of 22Rv1 cell viability [3]: 42%
IC50 [5]: 71.8 ± 8.2 µM
SI (Selectivity Index) (TNBC MDA-MB-468 cells): 7.75

Compound: CNC(=O)c1ccc(N2C(=S)N(c3cnc(C#N)c(C(F)(F)F)c3)C(=O)C23CCC3)cc1F [apalutamide]
IC50 [1]: 77 ± 17 µM

Source: paper PMC8035258 (ChemMedChem, 2021)
